The source of these data is patent US6329392A, “Substituted piperidines useful for the treatment of allergic diseases” (Aventis Pharmaceuticals, Inc., priority 1998, dated 2001).

Where two headings read alike, the source gives them in different places.

As usually defined, the IC50 is the concentration that inhibits the measured activity by half.

One experiment deals with T1, H1 receptor (Cavia porcellus, UniProt P31389).
T1 construct: A piece of ileum, about 20 cm in length, is removed and cut into 2 cm pieces; from tissue; host or cells: ileum of male Hartley guinea pigs
T1 sequence (P31389 whole entry): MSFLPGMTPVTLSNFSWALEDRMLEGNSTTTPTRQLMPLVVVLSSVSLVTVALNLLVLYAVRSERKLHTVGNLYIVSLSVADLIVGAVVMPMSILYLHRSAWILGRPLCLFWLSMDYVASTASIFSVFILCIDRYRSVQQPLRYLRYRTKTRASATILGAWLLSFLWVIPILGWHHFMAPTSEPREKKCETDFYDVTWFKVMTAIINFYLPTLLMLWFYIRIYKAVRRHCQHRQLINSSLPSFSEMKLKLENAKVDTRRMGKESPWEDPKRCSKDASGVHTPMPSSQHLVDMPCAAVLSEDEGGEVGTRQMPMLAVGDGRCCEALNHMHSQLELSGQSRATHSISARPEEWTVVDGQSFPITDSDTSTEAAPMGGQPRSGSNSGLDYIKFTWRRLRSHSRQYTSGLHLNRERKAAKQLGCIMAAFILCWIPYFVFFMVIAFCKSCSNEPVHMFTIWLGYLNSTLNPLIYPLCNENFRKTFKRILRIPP
The experiment is described as follows: Histamine (H1) antagonism in guinea pig ileum. The format is cell-based. As to the method:
Male Hartley guinea pigs, weighing 200-450 grams, are sacrificed by CO2 asphyxiation. A piece of ileum, about 20 cm in length, is removed and cut into 2 cm pieces. Each ileum piece is placed in an organ bath at 37° C. containing Tyrode's solution and is constantly aerated with 95% O2 /5%CO2. Tyrode's solution has the composition: NaCl 136.9 mM, KCl […], CaCl2 1.8 mM, NaH2 PO4 0.42 mM, NaHCO3 11.9 mM, and dextrose 5.55 mM. Contractions are measured with an isometric transducer (Grass FTO3C), and are recorded on a polygraph recorder and/or a computer. The ileum strips are loaded with 1.0 grams of tension and allowed to equilibrate for a minimum of 30 minutes before starting the experiments.
The potency of the antagonism is determined by the magnitude of the shift and is expressed as a pA2 value which is the negative logarithm of the molar concentration of antagonist which produces a two-fold shift of the dose response curve to the right. The pA2 value is calculated by using Schild analysis. O. Arunlakshana and H. O. Schild, Br. J. Pharmacol Chemother. 14, 48-58 (1958).
Table 1 presents pA2 values by the method of Example 93 which indicate potency of H1 receptor antagonism and IC50 values by the method of Example 95 which indicates NK1 receptor binding affinity for representative compounds of the present invention.

A further experiment deals with T2, NK1 receptor (Cavia porcellus, UniProt P30547).
T2 construct: as evaluated in guinea pig lungs (Keystone Biologicals, Cleveland, Ohio); tissue Keystone Biologicals, Cleveland, Ohio; host or cells: guinea pig lung membranes
T2 sequence (P30547 whole entry): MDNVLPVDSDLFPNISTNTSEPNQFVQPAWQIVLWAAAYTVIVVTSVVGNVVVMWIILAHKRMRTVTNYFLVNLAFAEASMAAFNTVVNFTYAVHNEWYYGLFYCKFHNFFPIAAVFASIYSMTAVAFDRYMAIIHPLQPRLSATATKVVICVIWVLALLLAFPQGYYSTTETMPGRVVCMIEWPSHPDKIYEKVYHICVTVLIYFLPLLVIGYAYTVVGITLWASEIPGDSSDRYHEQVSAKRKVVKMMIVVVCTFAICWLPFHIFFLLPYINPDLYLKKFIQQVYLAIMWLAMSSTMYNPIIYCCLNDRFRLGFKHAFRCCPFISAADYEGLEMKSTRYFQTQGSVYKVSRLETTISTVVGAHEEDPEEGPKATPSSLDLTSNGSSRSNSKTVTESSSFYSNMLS
The experiment is described as follows: Antagonism of iodinated tachykinin (substance P) binding to NK1 receptors in guinea pig lungs. The conditions noted are these: read-out: NK1 Receptor Binding Affinity, IC50. As to the method: Antagonism of iodinated tachykinin binding to NK1 receptors by putative antagonists
One skilled in the art can measure the NK1 receptor affinity of proposed tachykinin antagonists as evaluated in guinea pig lungs (Keystone Biologicals, Cleveland, Ohio). Tissues or cells are homogenized with a Polytron in 15 volumes of 50 mM Tris-HCl buffer (pH 7.4, […]) and centrifuged. The pellet is resuspended in Tris-HCl buffer and centrifuged; the pellet is washed twice by resuspension. The final pellet is resuspended at a concentration of 40 mg/ml incubation buffer and remains at room temperature for at least 15 min prior to use. […] Incubations are performed at room temperature for 90 min; binding is terminated by addition of 50 mM Tris-HCl buffer (pH 7.4, […]) and filtration under vacuum through GF/B filters presoaked with 0.1% polyethyleneimine. Filter bound radioactivity is quantitated in a gamma counter. […] IC50 values (concentration required to inhibit 50% of receptor binding) are generated for each of the test compounds by nonlinear regression using an iterative curve fitting program (GraphPAD Inplot, San Diego, Calif.).

Setting [1] is: read-out: H1 Receptor Antagonism, pA2, in vitro (converted).
Setting [2] is: guinea pig lungs, 0.1 nM 125I-Bolton Hunter Lys-3 labeled substance P, room temperature 90 min, pH 7.4.

As for `COc1cc(C(=O)N2CCC(CCN3CCC(C(=O)c4nc5ccccc5n4Cc4ccc(F)cc4)CC3)(c3ccc(Cl)c(Cl)c3)C2)cc(OC)c1OC` (single isomer, unassigned; (+)) [Example 14, (+)-1-(3,4,5-Trimethoxy-benzoyl)-3-[2-[4-[1-(4-fluoro-benzyl)-1 H-benzoimidazole-2-carbonyl]-piperidin-1-yl]-ethyl]-3-(3,4-dichloro-phenyl)-pyrrolidine], at H1 receptor (setting [1]), the Kb was 50.1 nM. Besides, the IC50 on NK1 receptor was 29 nM.
On to `CCOCCn1c(C2(O)CCN(CCC3(c4ccc(Cl)c(Cl)c4)CCN(C(=O)c4cc(OC)c(OC)c(OC)c4)C3)CC2)nc2ccccc21` (single isomer, unassigned; (+)) [Example 81, (+)-1-(3,4,5-Trimethoxy-benzoyl)-3-[2-[4-[1-(2-ethoxy-ethyl)-1H-benzoimidazole]-4-hydroxy-piperidin-1-yl]-ethyl]-3-(3,4-dichloro-phenyl)-pyrrolidine], for which the Kb on H1 receptor (setting [1]) was 525 nM. Further, the concentration for half-maximal inhibition (IC50) at NK1 receptor was 10 nM.
`COc1ccc(C2(CCN3CCC(C(=O)c4nc5ccccc5n4Cc4ccc(F)cc4)CC3)CCN(C(=O)c3cc(OC)c(OC)c(OC)c3)C2)cc1OC` (stereo not drawn) [Example 1, 1-(3,4,5-Trimethoxy-benzoyl)-3-[2-[4-[1-(4-fluoro-benzyl)-1H-benzoimidazole-2-carbonyl]-piperidin-1-yl]-ethyl]-3-(3,4-dimethoxy-phenyl)-pyrrolidine]: the Kb at H1 receptor (setting [1]) is 31.6 nM. Further, the IC50 on NK1 receptor (setting [2]) stood at 31 nM.
In turn, `COc1ccc(C2(CCN3CCC(C(=O)c4nc5ccccc5n4Cc4ccc(F)cc4)CC3)CCN(C(=O)c3ccccc3)C2)cc1OC` (stereo not drawn) [Example 2, 1-Benzoyl-3-[2-[4-[1-(4-fluoro-benzyl)-1 H-benzoimidazole-2-carbonyl]-piperidin-1-yl]-ethyl]-3-(3,4-dimethoxy-phenyl)-pyrrolidine] had a Kb on H1 receptor of 26.9 nM.
`COc1ccc(C2(CCN3CCC(O)(c4nc5ccccc5n4Cc4ccc(F)cc4)CC3)CCN(C(=O)c3ccccc3)C2)cc1OC` (stereo not drawn) [Example 3, 1-Benzoyl-3-[2-[4-[1-(4-fluoro-benzyl)-1 H-benzoimidazol-2-yl]-4-hydroxy-piperidin-1-yl]-ethyl]-3-(3,4-dimethoxy-phenyl)-pyrrolidine] showed a Kb at H1 receptor of 37.2 nM. At NK1 receptor, the IC50 amounted to 406 nM.
Take `COc1ccc(C2(CCN3CCC(c4nc5ccccc5s4)CC3)CCN(C(=O)c3ccccc3)C2)cc1OC` (stereo not drawn) [Example 4, 1-Benzoyl-3-[2-[4-(benzothiazol-2-yl)-piperidin-1-yl]-ethyl]-3-(3,4-dimethoxy-phenyl)-pyrrolidine]: the Kb on H1 receptor (setting [1]) was 158 nM. At NK1 receptor, the IC50 is 2590 nM.
Regarding `COc1ccc(C2(CCN3CCC(O)(c4nc5ccccc5n4Cc4ccc(F)cc4)CC3)CCN(C(=O)c3cc(OC)c(OC)c(OC)c3)C2)cc1OC` (stereo not drawn) [Example 5, 1-(3,4,5-Trimethoxy-benzoyl)-3-[2-[4-[1-(4-fluoro-benzyl)-1 H-benzoimidazol-2-yl]-4-hydroxy-piperidin-1-yl]-ethyl]-3-(3,4-dimethoxy-phenyl)-pyrrolidine], on H1 receptor (setting [1]), the Kb was 269 nM. Besides, on NK1 receptor, the IC50 is 25 nM.
With `COc1cc(C(=O)N2CCC(CCN3CCC(C(=O)c4nc5ccccc5n4Cc4ccc(F)cc4)CC3)(c3ccc(Cl)c(Cl)c3)C2)cc(OC)c1OC` (stereo not drawn) [Example 6, 1-(3,4,5-Trimethoxy-benzoyl)-3-[2-[4-[1-(4-fluoro-benzyl)-1 H-benzoimidazole-2-carbonyl]-piperidin-1-yl]-ethyl]-3-(3,4-dichloro-phenyl)-pyrrolidine], the Kb at H1 receptor (setting [1]) is 141 nM. Besides, at NK1 receptor, the IC50 was determined as 85 nM.
In turn, `COc1cc(C(=O)N2CCC(CCN3CCC(O)(c4nc5ccccc5n4Cc4ccc(F)cc4)CC3)(c3ccc(Cl)c(Cl)c3)C2)cc(OC)c1OC` (stereo not drawn) [Example 7, 1-(3,4,5-Trimethoxy-benzoyl)-3-[2-[4-[1-(4-fluoro-benzyl)-1 H-benzoimidazol-2-yl]-4-hydroxy-piperidin-1-yl]-ethyl]-3-(3,4-dichloro-phenyl)-pyrrolidine] gave a Kb on H1 receptor of 38.9 nM. The IC50 at NK1 receptor amounted to 64 nM.
`COc1ccc(C2(CCN3CCC(C(O)(c4ccccc4)c4ccccc4)CC3)CCN(C(=O)c3cc(OC)c(OC)c(OC)c3)C2)cc1OC` (stereo not drawn) [Example 9, 1-(3,4,5-Trimethoxy-benzoyl)-3-[2-[4-(hydroxy-diphenyl-methyl)-piperidin-1-yl]-ethyl]-3-(3,4-dimethoxy-phenyl)-pyrrolidine]: the Kb at H1 receptor (setting [1]) is 724 nM. Moreover, the IC50 at NK1 receptor worked out at 122 nM.
Regarding `COc1cc(C(=O)N2CCC(CCN3CCC(C(=O)c4nc5ccccc5n4Cc4ccc(F)cc4)CC3)(c3ccc4c(c3)OCO4)C2)cc(OC)c1OC` (stereo not drawn) [Example 10, 1-(3,4,5-Trimethoxy-benzoyl)-3-[2-[4-[1-(4-fluoro-benzyl)-1 H-benzoimidazole-2-carbonyl]-piperidin-1-yl]-ethyl]-3-(benzo[1,3]dioxol-5-yl)-pyrrolidine], at H1 receptor (setting [1]), the Kb is 60.3 nM. Besides, on NK1 receptor (setting [2]), the half-maximal inhibitory concentration (IC50) amounted to 146 nM.
For `COc1cc(C(=O)N2CCC(CCN3CCC(C(=O)c4nc5ccccc5n4Cc4ccc(F)cc4)CC3)(c3ccccc3)C2)cc(OC)c1OC` (stereo not drawn) [Example 11, 1-(3,4,5-Trimethoxy-benzoyl)-3-[2-[4-[1-(4-fluoro-benzyl)-1 H-benzoimidazole-2-carbonyl]-piperidin-1-yl]-ethyl]-3-phenyl-pyrrolidine], the Kb at H1 receptor (setting [1]) is 33.9 nM.
In the case of `COc1cc(C(=O)N2CCC(CCN3CCC(C(=O)c4nc5ccccc5n4Cc4ccc(F)cc4)CC3)(c3ccc(C(F)(F)F)cc3)C2)cc(OC)c1OC` (stereo not drawn) [Example 20, 1-(3,4,5-Trimethoxy-benzoyl)-3-[2-[4-[1-(4-fluoro-benzyl)-1 H-benzoimidazole-2-carbonyl]-piperidin-1-yl]-ethyl]-3-(4-trifluoromethyl-phenyl)-pyrrolidine], at H1 receptor (setting [1]), the Kb is 129 nM. On NK1 receptor, the IC50 was 109 nM.
For the molecule `COc1cc(C(=O)N2CCC(CCN3CCC(C(=O)c4nc5ccccc5n4Cc4ccc(F)cc4)CC3)(c3ccc(F)cc3F)C2)cc(OC)c1OC` (stereo not drawn) [Example 25, 1-(3,4,5-Trimethoxy-benzoyl)-3-[2-[4-[1-(4-fluoro-benzyl)-1 H-benzoimidazole-2-carbonyl]-piperidin-1-yl]-ethyl]-3-(2,4-difluoro-phenyl)-pyrrolidine], on H1 receptor (setting [1]), the Kb is 141 nM. On NK1 receptor, the IC50 stood at 325 nM.
For `CC(C)Oc1cccc(CC(=O)N2CCC(CCN3CCC(C(=O)c4nc5ccccc5n4Cc4ccc(F)cc4)CC3)(c3ccc4c(c3)OCO4)C2)c1` (stereo not drawn) [Example 26, 1-(3-Isopropoxy-phenyl-acetyl)-3-[2-[4-[1-(4-fluoro-benzyl)-1 H-benzoimidazole-2-carbonyl]-piperidin-1-yl]-ethyl]-3-(benzo[1,3]dioxol-5-yl)-pyrrolidine], in that order: 61.7 nM and 288 nM.
For the molecule `COc1ccc(C(=O)N2CCC(CCN3CCC(C(=O)c4nc5ccccc5n4Cc4ccc(F)cc4)CC3)(c3ccc4c(c3)OCO4)C2)c(OC)c1OC` (stereo not drawn) [Example 27, 1-(2,3,4-Trimethoxy-benzoyl)-3-[2-[4-[1-(4-fluoro-benzyl)-1 H-benzoimidazole-2-carbonyl]-piperidin-1-yl]-ethyl]-3-(benzo[1,3]dioxol-5-yl)-pyrrolidine], the Kb at H1 receptor (setting [1]) was 20.9 nM. The IC50 at NK1 receptor is 370 nM.
